Experiment [1] has as its system K562. The experiment is described as follows: Cytotoxicity against human K562 cells assessed as cell viability after 48 hrs by MTT assay. In kind it is functional, cell-based. The conditions noted are these: K562, 48 h.
A short description of experiment [2]: Cytotoxicity against human multidrug resistant Lucena1 cells assessed as cell viability after 48 hrs by MTT assay. As to conditions: Lucena 1, 48 h. In kind it is functional, cell-based. (In general: Tetrazolium dyes change colour on reduction, which living cells bring about.)
In experiment [3] the test system is K562. Kind of experiment: Induction of apoptosis in human K562 cells assessed as DNA fragmentation at 10 ug/mL by FACS analysis. In kind it is functional. In general terms: Flow cytometry measures light scatter and fluorescence of single cells or particles in a stream.
Experiment [4] has as its system K562. The experiment is described as follows: Activation of caspase 3 in human K562 cells at 50 ug/mL after 8 hrs by flow cytometry. The class given is functional.
The subject of the next experiment is Caco-2. The experiment is described as follows: Cytotoxicity against human Caco-2 cells assessed as cell viability. In kind it is functional, cell-based.
A short description of experiment [5]: Induction of apoptosis in human multidrug resistant Lucena1 cells assessed as DNA fragmentation at 25 ug/mL by FACS analysis. In kind it is functional.
Experiment [6] has as its system K562. Kind of experiment: Induction of apoptosis in human K562 cells assessed as DNA fragmentation at 25 ug/mL by FACS analysis. The class given is functional.
Experiment [7] can be described thus: Induction of apoptosis in human multidrug resistant Lucena1 cells assessed as DNA fragmentation at 10 ug/mL by FACS analysis. The class given is functional.
Experiment [8] relates to K562. The experiment is described as follows: Activation of caspase 3 in human K562 cells at 50 ug/mL after 24 hrs by flow cytometry. The class given is functional.
A further experiment has as its system A549. The experiment is described as follows: Cytotoxicity against human A549 cells assessed as cell viability. The class given is functional, cell-based.
Experiment [9] deals with K562. Kind of experiment: Activation of caspase 3 in human K562 cells at 50 ug/mL after 4 hrs by flow cytometry. The class given is functional.
Experiment [10] can be described thus: Induction of apoptosis in human multidrug resistant Lucena1 cells assessed as DNA fragmentation at 50 ug/mL by FACS analysis. The class given is functional.
The subject of experiment [11] is K562. Kind of experiment: Activation of caspase 3 in human K562 cells at 50 ug/mL after 12 hrs by flow cytometry. In kind it is functional.
For another experiment, the system named is HEp-2. The experiment is described as follows: Cytotoxicity against human HEp2 cells assessed as cell viability. In kind it is functional, cell-based.
Experiment [12] relates to K562. Kind of experiment: Induction of apoptosis in human K562 cells assessed as DNA fragmentation at 50 ug/mL by FACS analysis. In kind it is functional.

Usually IC50 stands for the concentration that gives 50% inhibition. On to `CC(=O)O[C@H]1[C@H](O)C[C@]2(C)[C@H]3CC=C4[C@H]5[C@](C(=O)O)(CC[C@@H](C)[C@@]5(C)O)CC[C@@]4(C)[C@]3(C)CC[C@H]2C1(C)C`, for which the IC50 with K562 [1] was 56.6 µM; in experiment [2], 72.9 µM.

As to `CC(=O)O[C@@H]1C[C@]2(C)[C@H]3CC=C4[C@H]5[C@](C(=O)O)(CC[C@@H](C)[C@@]5(C)O)CC[C@@]4(C)[C@]3(C)CC[C@H]2C(C)(C)[C@H]1O`, the values for the IC50 (in the experiment on K562 [1]; in experiment [2]) were 38.4 µM and 41.4 µM, respectively.

As to `C[C@@H]1CC[C@]2(C(=O)O)CC[C@]3(C)C(=CC[C@@H]4[C@@]5(C)C[C@@H](O)[C@@H](O)C(C)(C)[C@@H]5CC[C@]43C)[C@@H]2[C@]1(C)O` [EUSCAPHIC ACID], the Activity in the experiment on K562 [3] came out at 13.58%; in the experiment on K562 [4], 13.87%; in [5], 30.87%; with K562 [6], 27.75%; in experiment [7], 10.48%; with K562 [8], 36.33%. Besides, the Activity in the experiment on K562 [9] was determined as 8.04%; in [10], 63.57%; with K562 [11], 18.69%; in the experiment with K562 [12], 62.93%. The concentration for half-maximal inhibition (IC50) with Caco-2 was determined as 104 µM; with K562 [1] it was 76.7 µM; in experiment [2] it was 83.8 µM; in the experiment with A549 it was 95.6 µM; in the experiment on HEp-2, 106 µM.

For `C[C@@H]1CC[C@]2(C(=O)O)CC[C@]3(C)C(=CC[C@@H]4[C@@]5(C)C[C@@H](O)[C@H](O)C(C)(C)[C@@H]5CC[C@]43C)[C@@H]2[C@]1(C)O` [TOMENTIC ACID], the IC50 in the experiment on K562 [1] amounted to 89.4 µM; in experiment [2], 80.2 µM.

As for `CC[C@]1(O)C[C@H]2CN(CCc3c([nH]c4ccccc34)[C@@](C(=O)OC)(c3cc4c(cc3OC)N(C=O)[C@H]3[C@@](O)(C(=O)OC)[C@H](OC(C)=O)[C@]5(CC)C=CCN6CC[C@]43[C@@H]65)C2)C1` [VINCRISTINE], the results for the IC50 (in the experiment with K562 [1]; in [2]) were 0.006 µM and more than 0.1 µM, respectively.

For the origin of these results see ChEMBL document CHEMBL1137538, “Natural triterpenoids from Cecropia lyratiloba are cytotoxic to both sensitive and multidrug resistant leukemia cell lines” (Bioorg Med Chem, 2007).
